In ChEMBL document CHEMBL6115042, “Hydroquinazoline Derivatives as Novel Natriuretic Peptide Receptor 1 (NPR1) Activators” (ACS Med Chem Lett, 2025):

Tests used:
[1] = Activation of monkey NPR1 expressed in CHO-K1 cells assessed as increase in cGMP production measured after 30 mins by HTRF assay; type: cell-based; details: Macaca mulatta, CHO-K1, 0.5 h
[2] = target: T1, Atrial natriuretic peptide receptor 1 (Homo sapiens, UniProt P16066); assay: Activation of human NPR1 expressed in CHO-K1 cells assessed as increase in cGMP production measured after 30 mins by HTRF assay; type: cell-based
T1 sequence (P16066 whole entry): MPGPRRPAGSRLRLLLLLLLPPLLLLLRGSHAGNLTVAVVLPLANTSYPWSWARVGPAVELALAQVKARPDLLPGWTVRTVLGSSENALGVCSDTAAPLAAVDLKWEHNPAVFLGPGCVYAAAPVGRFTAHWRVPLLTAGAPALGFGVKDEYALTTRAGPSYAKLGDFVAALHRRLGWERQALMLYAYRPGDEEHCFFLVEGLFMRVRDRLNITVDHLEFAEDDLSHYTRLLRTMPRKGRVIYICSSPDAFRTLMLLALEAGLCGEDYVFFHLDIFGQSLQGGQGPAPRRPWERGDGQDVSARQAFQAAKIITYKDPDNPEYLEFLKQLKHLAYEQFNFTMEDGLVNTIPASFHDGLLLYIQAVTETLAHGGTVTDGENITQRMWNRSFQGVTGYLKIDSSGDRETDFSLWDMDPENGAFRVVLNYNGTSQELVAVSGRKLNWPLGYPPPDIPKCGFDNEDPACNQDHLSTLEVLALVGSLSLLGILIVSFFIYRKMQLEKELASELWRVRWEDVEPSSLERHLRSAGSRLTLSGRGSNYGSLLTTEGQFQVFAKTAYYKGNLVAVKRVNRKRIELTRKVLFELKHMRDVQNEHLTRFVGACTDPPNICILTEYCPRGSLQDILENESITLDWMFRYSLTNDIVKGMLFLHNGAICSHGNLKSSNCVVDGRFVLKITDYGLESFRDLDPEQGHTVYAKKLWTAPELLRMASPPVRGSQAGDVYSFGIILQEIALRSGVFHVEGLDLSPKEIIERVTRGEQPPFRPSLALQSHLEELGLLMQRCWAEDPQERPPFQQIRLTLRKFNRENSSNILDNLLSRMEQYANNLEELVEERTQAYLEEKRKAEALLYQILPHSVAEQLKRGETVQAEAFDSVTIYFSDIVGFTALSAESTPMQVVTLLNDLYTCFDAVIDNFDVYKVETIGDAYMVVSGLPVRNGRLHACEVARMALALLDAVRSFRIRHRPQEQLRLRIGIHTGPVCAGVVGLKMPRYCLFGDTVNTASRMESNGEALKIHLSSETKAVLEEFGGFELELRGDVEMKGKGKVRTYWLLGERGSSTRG

AC50 [2] | Structure (SMILES) | AC50 [1]
42 nM | CC[C@@H](Nc1nc2c(c(N[C@@H](CN3CCC[C@H](C)C3)c3cnn(C)c3)n1)C[C@](C)(c1cccc(F)c1)CC2)C1CCC(C(=O)O)CC1 (some centres undefined) | 44 nM
72 nM | CC[C@@H](Nc1nc2c(c(N[C@@H](CN3CCC[C@H](C)C3)c3cnn(C)c3)n1)C[C@](C)(c1ccc(F)cc1)CC2)C1CCC(C(=O)O)CC1 (some centres undefined) | 68 nM

The next lines start with the compound.

Structure (SMILES) | AC50 [2] | AC50 [1]
CC[C@@H](N(C)c1nc2c(c(N[C@@H](CN3CCCCCC3)c3cnn(C)c3)n1)C[C@H](c1cccc(F)c1)CC2)C12CC(C(=O)O)(C1)C2 | – | 10 nM
CC[C@H]([C@H]1CC[C@H](C(=O)O)CC1)N(C)c1nc2c(c(N[C@@H](CN3C4CCCC3CC4)c3ccn(C)n3)n1)C[C@H](c1cccc(F)c1)CC2 | – | 272 nM
CC[C@@H](Nc1nc2c(c(N[C@@H](CN3CCCCCC3)c3cnn(C)c3)n1)C[C@H](c1cccc(F)c1)CC2)C1CCC(C(=O)O)CC1 (some centres undefined) | 66 nM | 45 nM
CC[C@@H](Nc1nc2c(c(N[C@@H](CN3C4CCCC3CC4)c3ccccc3)n1)C[C@H](c1ccccc1)CC2)[C@H]1CC[C@H](C(=O)O)CC1 | – | 138 nM
